Values of other authors, collected in patent US11207317B2, “Methylnaltrexone nasal formulations, methods of making, and use thereof” (AptaPharma Inc., priority 2012, dated 2021).

System: opioid-induced reduction in bowel motility
Conditions: healthy volunteers; intravenous or oral administration

C[N@+]1(CC2CC2)CC[C@]23c4c5ccc(O)c4O[C@H]2C(=O)CC[C@@]3(O)[C@H]1C5 [methylnaltrexone, Methylnaltrexone]
effect on opioid-induced reduction in bowel motility: reverse opioid-induced reduction in bowel motility
